According to the Kinase Knowledgebase extract (Sharma et al. 2016):
In brackets after ≈: the same amount, converted by molar mass.

Target: EGFR (human) (UniProt P00533)
Settings: a431

Chain of EGFR (human) (P00533 whole entry, looked up): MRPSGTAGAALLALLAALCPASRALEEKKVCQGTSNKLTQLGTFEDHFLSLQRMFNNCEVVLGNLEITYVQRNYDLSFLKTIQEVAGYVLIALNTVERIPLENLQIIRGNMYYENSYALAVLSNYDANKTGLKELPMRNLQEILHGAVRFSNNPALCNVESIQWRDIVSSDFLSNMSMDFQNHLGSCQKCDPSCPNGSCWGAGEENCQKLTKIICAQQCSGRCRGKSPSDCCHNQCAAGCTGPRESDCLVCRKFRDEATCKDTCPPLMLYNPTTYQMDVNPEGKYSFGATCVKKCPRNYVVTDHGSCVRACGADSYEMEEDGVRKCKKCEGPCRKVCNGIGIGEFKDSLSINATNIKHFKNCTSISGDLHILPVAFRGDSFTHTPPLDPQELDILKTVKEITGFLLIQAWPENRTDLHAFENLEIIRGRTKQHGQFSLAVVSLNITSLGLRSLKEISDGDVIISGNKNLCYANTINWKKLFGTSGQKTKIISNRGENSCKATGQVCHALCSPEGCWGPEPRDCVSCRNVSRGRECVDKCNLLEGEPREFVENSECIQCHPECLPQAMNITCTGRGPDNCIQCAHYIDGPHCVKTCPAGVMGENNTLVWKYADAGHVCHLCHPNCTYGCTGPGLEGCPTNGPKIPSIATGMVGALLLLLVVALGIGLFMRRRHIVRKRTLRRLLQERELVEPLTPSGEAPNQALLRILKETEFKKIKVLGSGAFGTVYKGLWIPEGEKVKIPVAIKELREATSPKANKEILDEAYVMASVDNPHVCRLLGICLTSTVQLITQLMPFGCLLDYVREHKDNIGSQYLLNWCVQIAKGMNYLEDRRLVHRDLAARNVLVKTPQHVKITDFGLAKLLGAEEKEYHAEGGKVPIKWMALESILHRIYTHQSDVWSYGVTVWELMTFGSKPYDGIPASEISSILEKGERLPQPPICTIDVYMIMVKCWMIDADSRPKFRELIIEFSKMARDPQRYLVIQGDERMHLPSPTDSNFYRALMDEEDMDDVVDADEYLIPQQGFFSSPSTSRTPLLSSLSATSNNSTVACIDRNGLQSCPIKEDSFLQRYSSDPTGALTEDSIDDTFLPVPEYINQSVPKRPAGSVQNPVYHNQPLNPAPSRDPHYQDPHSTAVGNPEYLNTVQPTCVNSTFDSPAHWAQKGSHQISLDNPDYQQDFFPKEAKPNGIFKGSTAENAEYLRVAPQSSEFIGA

Row | Compound | IC50
1 | COc1cc2ncc(C#N)c(Nc3ccc(Sc4nc5ccccc5c(=O)[nH]4)c(Cl)c3)c2cc1[N+](=O)[O-] | 2.28 µg/mL (≈ 4.29 µM)
2 | CCOc1cc2ncc(C#N)c(Nc3ccc(Nc4nnc(C(F)(F)F)s4)c(Cl)c3)c2cc1NC(=O)/C=C/CN(C)C | 0.728 µg/mL (≈ 1.18 µM)
3 | CCOc1cc2ncc(C#N)c(Nc3ccc(Nc4nnc(C(F)(F)F)s4)c(Cl)c3)c2cc1[N+](=O)[O-] | 1.79 µg/mL (≈ 3.34 µM)
4 | CCOc1cc2ncc(C#N)c(Nc3ccc(Sc4nc(-c5ccccc5)cs4)c(C(F)(F)F)c3)c2cc1NC(=O)/C=C/CN(C)C | 0.3 µg/mL (≈ 0.445 µM)
5 | COc1cc2c(Nc3ccc4cn[nH]c4c3)c(C#N)cnc2cc1OCCCN1CCOCC1 | > 5 µg/mL

Next, values leading:

Row | IC50 | Compound
6 | 0.02 µg/mL (≈ 0.0365 µM) | COc1cc2ncc(C#N)c(Nc3ccc(Sc4nccn4C)c(Cl)c3)c2cc1NC(=O)/C=C/CN(C)C
7 | 1.63 µg/mL (≈ 4.17 µM) | COc1cc2ncc(C#N)c(Nc3ccc(-n4ccnc4)c(Cl)c3)c2cc1N
8 | 3.68 µg/mL (≈ 7.15 µM) | COc1cc2ncc(C#N)c(Nc3ccc(N(Cc4cccnc4)C(C)=O)c(Cl)c3)c2cc1NC(C)=O
9 | > 5 µg/mL | COc1cc2ncc(C#N)c(Nc3ccc(N(Cc4cccnc4)C(C)=O)c(Cl)c3)c2cc1N
10 | 1.6 µg/mL (≈ 3.18 µM) | COc1cc2ncc(C#N)c(Nc3ccc(N(Cc4cccnc4)C(C)=O)c(Cl)c3)c2cc1[N+](=O)[O-]
